{
  "source": "ChEMBL document CHEMBL4402605",
  "about": "“A Chemical Switch for Transforming a Purine Agonist for Toll-like Receptor 7 to a Clinically Relevant Antagonist” (J Med Chem, 2020)",
  "key": {"Mus musculus [1]": {"tested_on": "Mus musculus", "test": "(§1) Protection against imiquimod-induced C57BL/6 mouse model of psoriasis assessed as reduction in MX1 mRNA expression at 15 mg/kg, po administered via gavage treated 1 day prior to imiquimod application and subsequent daily dosing for 7 consecutive days and measured post-last dose by SYBR green dye based qPCR analysis", "assay_type": "functional, organism-based"}, "[2]": {"test": "Apparent permeability across apical to basal side in human Caco2 cells at 10 uM measured after 120 mins by LC-MS/MS analysis", "conditions": "Caco-2"}, "[3]": {"test": "Toxicity in C57BL/6 mouse assessed as change in lung alveolar architecture at 15 mg/kg, po administered once daily via gavage for 7 consecutive days and measured post-last dose by H and E staining based histomorphological analysis", "assay_type": "organism-based", "conditions": "in vivo"}, "[4]": {"test": "Toxicity in C57BL/6 mouse assessed as inflammation of kidney at 15 mg/kg, po administered once daily via gavage for 7 consecutive days and measured post-last dose by H and E staining based histomorphological analysis", "assay_type": "organism-based", "conditions": "in vivo"}, "[5]": {"test": "Toxicity in C57BL/6 mouse assessed as change in lung microanatomy at 15 mg/kg, po administered once daily via gavage for 7 consecutive days and measured post-last dose by H and E staining based histomorphological analysis", "assay_type": "organism-based", "conditions": "in vivo"}, "[6]": {"test": "Oral bioavailability in C57BL/6 mouse at 15 mg/kg administered via gavage by LC-MS/MS analysis", "assay_type": "ADME, organism-based", "conditions": "in vivo"}, "Mus musculus [7]": {"tested_on": "Mus musculus", "test": "as §1, with “suppression of vascular dilatation” for “reduction in MX1 mRNA expression”, “H and E staining” for “SYBR green dye”, “histopathological” for “qPCR”", "assay_type": "functional"}, "HEK293": {"tested_on": "HEK293", "test": "Cytotoxicity against HEK293 cells assessed as reduction in cell viability up to 100 uM measured after overnight incubation by propidium iodide staining based flow cytometry", "conditions": "human"}, "[8]": {"test": "Cmax in C57BL/6 mouse at 15 mg/kg, po administered via gavage by LC-MS/MS analysis", "assay_type": "ADME, organism-based", "design": "dose 15 mg/kg, route oral", "conditions": "in vivo"}, "[9]": {"test": "Efflux ratio of apparent permeability across basal to apical side over apical to basal side in human Caco2 cells at 10 uM measured after 120 mins by LC-MS/MS analysis", "conditions": "Caco-2"}, "[10]": {"test": "AUC (0 to 24 hrs) in C57BL/6 mouse at 15 mg/kg, po administered via gavage by LC-MS/MS analysis", "assay_type": "ADME, organism-based", "design": "time < 24 hr, dose 15 mg/kg, route oral", "conditions": "in vivo"}, "[11]": {"target": "T1, Toll-like receptor 7 (Homo sapiens) (UniProt Q9NYK1)", "T1 sequence (whole entry)": "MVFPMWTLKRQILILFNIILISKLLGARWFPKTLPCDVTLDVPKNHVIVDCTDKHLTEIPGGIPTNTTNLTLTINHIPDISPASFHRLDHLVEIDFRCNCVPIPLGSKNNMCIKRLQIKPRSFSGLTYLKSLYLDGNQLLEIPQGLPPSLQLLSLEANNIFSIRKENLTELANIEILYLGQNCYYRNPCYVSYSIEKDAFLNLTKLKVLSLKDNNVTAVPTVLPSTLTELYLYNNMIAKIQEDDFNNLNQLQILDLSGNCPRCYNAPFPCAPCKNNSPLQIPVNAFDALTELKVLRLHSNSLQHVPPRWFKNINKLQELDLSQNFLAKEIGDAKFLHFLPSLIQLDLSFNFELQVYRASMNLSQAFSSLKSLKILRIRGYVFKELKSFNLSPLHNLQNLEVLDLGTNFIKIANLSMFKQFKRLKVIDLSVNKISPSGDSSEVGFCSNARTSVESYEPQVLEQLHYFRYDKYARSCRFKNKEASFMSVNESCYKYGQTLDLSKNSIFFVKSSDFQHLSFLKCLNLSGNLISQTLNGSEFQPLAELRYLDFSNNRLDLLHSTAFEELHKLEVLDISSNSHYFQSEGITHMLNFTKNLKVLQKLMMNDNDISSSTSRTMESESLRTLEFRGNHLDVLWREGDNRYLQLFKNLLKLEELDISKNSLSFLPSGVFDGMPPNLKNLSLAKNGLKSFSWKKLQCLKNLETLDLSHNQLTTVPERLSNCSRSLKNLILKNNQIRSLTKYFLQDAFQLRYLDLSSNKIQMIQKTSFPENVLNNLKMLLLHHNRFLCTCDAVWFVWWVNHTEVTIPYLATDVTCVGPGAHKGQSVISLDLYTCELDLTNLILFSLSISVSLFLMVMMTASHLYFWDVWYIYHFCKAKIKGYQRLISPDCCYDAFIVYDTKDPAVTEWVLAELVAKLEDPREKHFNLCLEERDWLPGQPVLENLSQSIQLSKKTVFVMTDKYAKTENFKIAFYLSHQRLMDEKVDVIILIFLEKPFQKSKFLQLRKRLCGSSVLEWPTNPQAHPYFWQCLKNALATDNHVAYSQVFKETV", "test": "Antagonist activity at human TLR7 expressed in HEK-Blue cells assessed as inhibition of CL264-induced IL-6 mRNA expression at 5 uM preincubated for 1 hr followed by CL264 stimulation and measured after 6 hrs by SYBR green dye based RT-PCR analysis relative to control", "assay_type": "cell-based"}, "Mus musculus [12]": {"tested_on": "Mus musculus", "test": "as §1, with “suppression of parakeratosis” for “reduction in MX1 mRNA expression”, “H and E staining” for “SYBR green dye”, “histopathological” for “qPCR”", "assay_type": "functional"}, "[13]": {"test": "Tmax in C57BL/6 mouse at 15 mg/kg, po administered via gavage by LC-MS/MS analysis", "assay_type": "ADME, organism-based", "conditions": "in vivo"}, "physchem": {"test": "physchem", "conditions": "phosphate buffer, pH 7.4", "description": "Aqueous solubility of the compound in pH 7.4 0.25 M phosphate buffer at 500 uM incubated for 18 hrs under stirred condition by UV-HPLC analysis"}, "Toll-like receptor 7": {"target": "T2, Toll-like receptor 7 (Homo sapiens, UniProt Q9NYK1)", "T2 sequence (Q9NYK1 whole entry)": "T1 sequence (whole entry)", "description": "Antagonist activity at human TLR7 expressed in HEK-Blue cells assessed as inhibition of CL264-induced NFkappaB activation by measuring reduction in SEAP level after overnight incubation using qunati-blue reagent by SEAP reporter gene-based spectrophotometric method"}, "Mus musculus [14]": {"tested_on": "Mus musculus", "test": "(§2) Protection against imiquimod-induced C57BL/6 mouse model of psoriasis assessed as decrease in skin thickening at 15 mg/kg, po administered via gavage treated 1 day prior to imiquimod application and subsequent daily dosing for 7 consecutive days and measured post-last dose", "assay_type": "functional, organism-based"}, "[15]": {"test": "AUC (0 to 24 hrs) in C57BL/6 mouse at 15 mg/kg, iv by LC-MS/MS analysis", "assay_type": "ADME, organism-based", "design": "time < 24 hr, dose 15 mg/kg, route intravenous", "conditions": "in vivo"}, "in vitro": {"test": "in vitro", "conditions": "human, plasma", "description": "Stability of the compound in human plasma assessed as parent compound remaining at 25 uM measured after 2 hrs by LC-MS/MS analysis"}, "[16]": {"test": "Toxicity in C57BL/6 mouse assessed as behavioral changes at 15 mg/kg, po administered once daily via gavage for 7 consecutive days and measured post-last dose by H and E staining based histomorphological analysis", "assay_type": "organism-based", "conditions": "in vivo"}, "[17]": {"test": "Toxicity in C57BL/6 mouse assessed as glomerular hypertrophy at 15 mg/kg, po administered once daily via gavage for 7 consecutive days and measured post-last dose by H and E staining based histomorphological analysis", "assay_type": "organism-based", "conditions": "in vivo"}, "[18]": {"target": "T1, Toll-like receptor 7 (Homo sapiens)", "test": "Antagonist activity at TLR7 in human PBMC assessed as inhibition of gardiquimod-induced TNFalpha production at 5 uM preincubated for 1 hr followed by gardiquimod stimulation and measured after overnight incubation by ELISA"}, "Mus musculus [19]": {"tested_on": "Mus musculus", "test": "as §2, with “suppression of papillomatosis” for “decrease in skin thickening”, “dose by H and E staining based histopathological analysis” for “dose”", "assay_type": "functional"}, "Mus musculus [20]": {"tested_on": "Mus musculus", "test": "as §1, with “ISG15” for “MX1”", "assay_type": "functional, organism-based"}, "[21]": {"test": "Half life in C57BL/6 mouse at 15 mg/kg, po administered via gavage by LC-MS/MS analysis", "conditions": "in vivo"}, "Mus musculus [22]": {"tested_on": "Mus musculus", "test": "as §2, with “suppression of suprapapillary thinning” for “decrease in skin thickening”, “dose by H and E staining based histopathological analysis” for “dose”", "assay_type": "functional"}},
  "note": "Active and inactive are the calls of the source. The calls are words filed in the database; no cut-off is given here.",
  "data": [
    {"smiles": "CCN1CCN(CCCn2cnc3c(N4CCN(CC)CC4)ncnc32)CC1", "values": [
      {"measurement": "Activity", "setting": "Mus musculus [1]", "value": "Active"},
      {"measurement": "Papp A→B at 2 h, 10 µM", "setting": "[2]", "value": 3.57, "unit": "×10⁻⁶ cm/s"},
      {"measurement": "Activity", "setting": "[3]", "value": "Non-Toxic"},
      {"measurement": "Activity", "setting": "[4]", "value": "Non-Toxic"},
      {"measurement": "Activity", "setting": "[5]", "value": "Non-Toxic"},
      {"measurement": "bioavailability", "setting": "[6]", "value": 70.8, "unit": "%"},
      {"measurement": "Activity", "setting": "Mus musculus [7]", "value": 100, "unit": "%"},
      {"measurement": "Activity", "setting": "HEK293", "value": "Non-Toxic"},
      {"measurement": "Cmax", "setting": "[8]", "value": 2600, "unit": "ng/mL"},
      {"measurement": "efflux ratio at 2 h, 10 µM", "setting": "[9]", "value": 2.6},
      {"measurement": "AUC(0-t) at 24 h", "setting": "[10]", "value": 36100, "unit": "ng·h/mL"},
      {"measurement": "inhibition", "setting": "[11]", "value": 42.9, "unit": "%"},
      {"measurement": "Activity", "setting": "Mus musculus [12]", "value": 100, "unit": "%"},
      {"measurement": "Tmax", "setting": "[13]", "value": 2, "unit": "h"},
      {"measurement": "solubility at 18 h, 500 µM", "setting": "physchem", "value": 200, "unit": "µg/mL"},
      {"measurement": "IC50", "setting": "Toll-like receptor 7", "value": 4.7, "unit": "µM"},
      {"measurement": "Activity", "setting": "Mus musculus [14]", "value": "Active"},
      {"measurement": "AUC(0-t) at 24 h", "setting": "[15]", "value": 50900, "unit": "ng·h/mL"},
      {"measurement": "remaining at 2 h, 25 µM", "setting": "in vitro", "value": 95, "unit": "%"},
      {"measurement": "Activity", "setting": "[16]", "value": "Non-Toxic"},
      {"measurement": "Activity", "setting": "[17]", "value": "Non-Toxic"},
      {"measurement": "inhibition", "setting": "[18]", "value": "Active"},
      {"measurement": "Activity", "setting": "Mus musculus [19]", "value": 100, "unit": "%"},
      {"measurement": "Activity", "setting": "Mus musculus [20]", "value": "Active"},
      {"measurement": "half-life", "setting": "[21]", "value": 4.6, "unit": "h"},
      {"measurement": "Activity", "setting": "Mus musculus [22]", "value": 100, "unit": "%"}
    ]}
  ]
}
